# Results as given in patent US6429287B1, “Isolated molecules which complex with HLA-Cw*16 molecules, and uses thereof” (Ludwig Institute for Cancer Research, priority 1996, dated 2002).
# pEC50: −log10 of the molar value. Ends that are not written are not given here.
# Tests used:
# HLA-Cw*1601 = HLA-Cw*1601 (Homo sapiens, UniProt P10321, /M331V/P208H/P217L/Q277E/Q291P/R121W/S123Y/S297R/S48A/T329A/T363A/V319A); settings: disclosed in earlier applications Ser. No. 08/79,110 and 08/196,630; cited from earlier work
# [1] = tested on: HLA-Cw*1601 positive lymphoblastoid cell line, i.e., LB678-EBV; test: 51Cr release assay: peptide-stimulated lysis by CTLs; format: cell-based, human; settings: for ability of the peptide to stimulate lysis by CTLs: 51Cr labelled LB678-EBV target cells, peptide 15 minutes at room temperature, CTLs added, 51Cr release after four hours at 37° C.
# Experimental: Based upon this hypothesis, a series of peptides were constructed, and lyophilized prior to testing. The lyophilized peptides were dissolved in 1 volume of DMSO, then 9 volumes of H2O, plus 10 mM of acetic acid. The thus diluted peptides were stored at −20° C.
# The ability of the peptides to stimulate lysis by CTLs was tested via the ^51Cr release method of Boon et al., J. Exp. Med. 152: 1184-1193 (1980). Specifically, an HLA-Cw*1601 positive lymphoblastoid cell line, i.e., LB678-EBV was ^51Cr labelled for one hour at 37° C., and washed extensively. Then 1000 of these target cells were incubated in 96 well microplates, in the presence of various concentrations of peptide, for 15 minutes, at room temperature. CTLs were then added, and ^51Cr release was measured after four hours, at 37° C.
Substance,ability of the peptide to stimulate lysis by CTLs [1],further results
"AARAVFLAL [SEQ ID NO: 1, preferred BAGE-derived nonapeptide of earlier applications]",–,complexes with HLA-Cw*1601 and stimulates CTL 82/82 (HLA-Cw*1601): stimulating the cell line CTL 82/82
"KISGGPRISYPL [SEQ ID NO: 5, corresponds to amino acids 126-137 of MAGE-6]",Lysis first occurred,–
amino acids 1-9 of SEQ ID NO: 5: peptide consisting of amino acids 1-9 of SEQ ID NO: 5 (KISGGPRIS),neither one stimulated lysis,–
amino acids 2-10 of SEQ ID NO: 5: nonamer consisting of amino acids 2-10 of SEQ ID NO: 5 (ISGGPRISY),–,"pEC50 ([1]; 51Cr release, LB678-EBV target cells, CTLs, four hours at 37° C., FIG. 3, read-out: peptide concentration achieving half maximal lysis): 7.52"
amino acids 3-10 of SEQ ID NO: 5: peptide consisting of amino acids 3-10 of SEQ ID NO: 5 (SGGPRISY),neither one stimulated lysis,–
